The values that follow come from PubChem BioAssay (NCI).

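Five compound concentrations were applied to cells in 96-well plates for 48 hours; endpoints were derived by simple linear interpolation of the resulting dose-response curve. TGI marks complete inhibition of growth.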 Where a SMILES comes first, the peptide text is derived from it. [ ]: non-standard residue; d: D form. The star is where a group is joined. ξ: configuration not given here. ξF = NC(Cc1ccccc1)C(=O)O; Cbz = O=C(OCc1ccccc1)*; Aib = CC(C)(N)C(=O)O Where only a bound is given, the exact number is not on record here.

Among the test systems are 786-0 renal; A498 renal; ACHN renal; CCRF-CEM leukemia; EKVX NSCLC; K-562 leukemia; M14 melanoma; NCI-H460 lung; SK-MEL-2 melanoma; UO-31 renal.
What all share (assay): NCI tumour cell line growth inhibition, 48 h

For the compound `CC(C)(CO)CNc1cc(=O)[nH]c(N)n1`, the TGI with 786-0 renal, with A498 renal, with ACHN renal, in the assay with CCRF-CEM leukemia, in the assay on EKVX NSCLC and in the assay with K-562 leukemia was more than 100 µM in each case. Moreover, the TGI in the assay with M14 melanoma, with NCI-H460 lung, in the assay on SK-MEL-2 melanoma and in the assay with UO-31 renal was more than 100 µM each time.

As for `OC(C1CCC=NN1C(O)(C(F)(F)F)C(F)(F)F)(C(F)(F)F)C(F)(F)F` (stereo unspecified), the TGI in the assay on 786-0 renal, in the assay with A498 renal, in the assay with ACHN renal, with CCRF-CEM leukemia, in the assay on EKVX NSCLC and in the assay on K-562 leukemia was more than 10 µM in each case. For the same compound, the TGI in the assay with M14 melanoma, in the assay with NCI-H460 lung and in the assay with SK-MEL-2 melanoma was more than 10 µM each time.

Regarding `CCN1CC(C)Cn2c(=O)[nH]c3cc(Br)cc1c32` (stereo unspecified), the TGI in the assay on 786-0 renal was more than 100 µM; in the assay on A498 renal, 80.3 µM; with ACHN renal, more than 100 µM; in the assay on CCRF-CEM leukemia it was more than 100 µM; in the assay on EKVX NSCLC, 52 µM; in the assay on K-562 leukemia, more than 100 µM. In addition, the TGI in the assay with M14 melanoma, in the assay with NCI-H460 lung, in the assay on SK-MEL-2 melanoma and in the assay on UO-31 renal was more than 100 µM each time.

As to `S=C1c2ccccc2NC(=NC2CCCC2)C2CSCN12` (stereo unspecified), the TGI with 786-0 renal, with A498 renal, in the assay on ACHN renal, in the assay with CCRF-CEM leukemia, in the assay with EKVX NSCLC and in the assay with K-562 leukemia was more than 100 µM in each case. Further, the TGI in the assay on M14 melanoma, in the assay with NCI-H460 lung, in the assay on SK-MEL-2 melanoma and in the assay with UO-31 renal was more than 100 µM in each case.

For `Cc1c(-c2c(C)c3ccccc3n2S(=O)(=O)c2ccccc2)n(S(=O)(=O)c2ccccc2)c2ccccc12`, the TGI with 786-0 renal was 42.9 µM; in the assay with A498 renal, more than 100 µM; in the assay with ACHN renal it was more than 100 µM; in the assay with CCRF-CEM leukemia, more than 100 µM; with EKVX NSCLC, more than 100 µM; in the assay with K-562 leukemia it was more than 100 µM. Further, the TGI was more than 100 µM with M14 melanoma, 16.3 µM in the assay on NCI-H460 lung, more than 100 µM in the assay with SK-MEL-2 melanoma and more than 100 µM in the assay on UO-31 renal.

Take `CC(C)(NC(=O)OCc1ccccc1)C(=O)NC(Cc1ccccc1)C(=O)O` (stereo unspecified) (Cbz-[Aib]-[ξF]-OH): the TGI in the assay on 786-0 renal, in the assay on A498 renal, in the assay with CCRF-CEM leukemia, with K-562 leukemia, in the assay with M14 melanoma and in the assay on NCI-H460 lung was more than 100 µM throughout. Moreover, the TGI in the assay on SK-MEL-2 melanoma and in the assay with UO-31 renal was more than 100 µM each time.

Regarding `NCCC(N)C(=O)O` (stereo unspecified), the TGI in the assay on 786-0 renal, in the assay on A498 renal, in the assay with ACHN renal, in the assay on CCRF-CEM leukemia, in the assay with EKVX NSCLC and in the assay with K-562 leukemia was more than 100 µM in each case. Also, the TGI in the assay with M14 melanoma, with NCI-H460 lung, in the assay on SK-MEL-2 melanoma and in the assay on UO-31 renal was more than 100 µM in each case.

Regarding `O=C(Nc1ccccc1)O/N=C(/CBr)c1ccccc1`, the TGI in the assay on 786-0 renal was 26.6 µM; in the assay with A498 renal it was 64.1 µM; in the assay with ACHN renal, 33.2 µM; in the assay with CCRF-CEM leukemia it was more than 100 µM; with EKVX NSCLC, 35.1 µM; in the assay with K-562 leukemia, more than 100 µM. Besides, the TGI with M14 melanoma was 28.4 µM; in the assay with NCI-H460 lung, 43.1 µM; in the assay on SK-MEL-2 melanoma it was 30.9 µM; in the assay on UO-31 renal, 32.4 µM.

`Cc1ccc(S(=O)(=O)N/C(=C\C=C\c2ccccc2)C(=O)C(C)(C)C)cc1`: the TGI with 786-0 renal is 73.6 µM; in the assay on A498 renal, more than 100 µM; in the assay with ACHN renal, more than 100 µM; in the assay with CCRF-CEM leukemia it was more than 100 µM; in the assay with EKVX NSCLC, more than 100 µM; in the assay with K-562 leukemia, more than 100 µM. In addition, the TGI with M14 melanoma, in the assay with NCI-H460 lung, with SK-MEL-2 melanoma and in the assay with UO-31 renal was more than 100 µM throughout.

Consider `CC(C)Oc1c(-c2c(OC(C)C)c(=O)c2=O)c(=O)c1=O`, for which the TGI was more than 66 µM with 786-0 renal; more than 100 µM in the assay with A498 renal; more than 100 µM in the assay with ACHN renal; more than 100 µM with CCRF-CEM leukemia; more than 64.9 µM in the assay on EKVX NSCLC; more than 54.7 µM in the assay with K-562 leukemia. The TGI was more than 100 µM with M14 melanoma, more than 100 µM with NCI-H460 lung, more than 89.1 µM with SK-MEL-2 melanoma and more than 100 µM with UO-31 renal.

`CC(C)(CN)CN`: the TGI in the assay with 786-0 renal, in the assay on A498 renal, in the assay with ACHN renal, with CCRF-CEM leukemia, with EKVX NSCLC and in the assay on K-562 leukemia was more than 100 µM each time. Moreover, the TGI in the assay with M14 melanoma, in the assay with NCI-H460 lung, in the assay on SK-MEL-2 melanoma and in the assay on UO-31 renal was more than 100 µM throughout.

With `C=CC[C@H]1[C@@H](O[Si](C)(C)C(C)(C)C)[C@H](n2ccc(=O)[nH]c2=O)O[C@@H]1CO[Si](C)(C)C(C)(C)C`, the TGI turned out to be 3.01 µM with 786-0 renal; 7.83 µM in the assay with A498 renal; 5.41 µM in the assay on ACHN renal; 16 µM in the assay with CCRF-CEM leukemia; 4.83 µM in the assay with EKVX NSCLC; 6.1 µM with K-562 leukemia. Further, the TGI in the assay with M14 melanoma was determined as 3.23 µM; in the assay with NCI-H460 lung, 4.06 µM; in the assay with SK-MEL-2 melanoma, 7.08 µM; in the assay on UO-31 renal, 3.65 µM.

`CC(=O)C1CC(C)=CCC12C(=O)Nc1ccccc12` (stereo unspecified): the TGI in the assay on 786-0 renal, with A498 renal, with ACHN renal, with CCRF-CEM leukemia, with EKVX NSCLC and in the assay on K-562 leukemia was more than 100 µM each time. The TGI in the assay on M14 melanoma, in the assay on NCI-H460 lung and in the assay with SK-MEL-2 melanoma was more than 100 µM throughout.

Regarding `CC(=O)O/C=C\OC1CCCC1(c1ccccc1)c1ccccc1` (stereo unspecified), the TGI in the assay on 786-0 renal came to 7.75 µM; in the assay on A498 renal, 32.9 µM; in the assay with ACHN renal it was 4.36 µM; in the assay on CCRF-CEM leukemia it was 5.71 µM; in the assay with EKVX NSCLC it was 20.7 µM; with K-562 leukemia, 9.05 µM. Besides, the TGI in the assay on M14 melanoma amounted to 5.75 µM; in the assay with NCI-H460 lung, 26.6 µM; with SK-MEL-2 melanoma, 12.5 µM; with UO-31 renal, 3.61 µM.
